What was measured:
Format in all cases: cell-based
[1] = tested on: U87 IDH1 mt R132H; test: Combination assay PARP inhibitor with TMZ, U87 IDH1mt
Protocol: (§1) To evaluate the activity and potency of the PARP inhibitors described herein in combination with the standard of care chemotherapy Temozolamide (TMZ), ionizing radiation (IR) and the emerging chemotherapy VAL-083, U87, SJG2 and BT245 glioblastoma cells were assayed. Parental U87 cell lines were obtained from the AstraZeneca Global Cell Bank in Alderley Park, UK and the isocistrate dehydrogenase 1 mutant cell line (IDH1 mt R1 32H) was licensed in from ATCC. The SJ-G2 (ATRX mutant) and BT245 (H3K27M mutant) cell lines were obtained from The Research Institute of the McGill University Health Centre, Montreal, QC H4A 3J1, Canada. IDH1R132 mutation was induced in SJG2 cell line to generated isogenic pair (SJG2 IDH1mt and SJG2 IDH1 wt). […]
(§2) For the nuclear count end point assay, cells were fixed for ˜15 minutes (min) by the addition of 50 μl per well of Formaldehyde (Sigma-Aldrich F8775). […] The images were acquired using CellInsight CX5 (Thermo Fisher) and analysed by measuring the total number of hoechst stained nuclei. The number of nuclei (% confluence) of the drug treated wells were normalised to the DMSO control and the growth inhibition was calculated using the combenefit software (Di Veroli et al., 2016).

[2] = tested on: SJ-G2 IDH1 wt and IDH1mt isogenic pairs; test: Combination assay PARP inhibitor with VAL-083, SJ-G2 isogenic pairs
Protocol: as §1, §2

[3] = tested on: U87 IDH1mt ATRXwt; test: Monotherapy treatment, U87 IDH1mt ATRXwt; conditions: read-out: Compound 20 IC50
Protocol: as §1, §2

CNC(=O)c1ccc(N2CCN(Cc3ccc4nc(C)c(=O)[nH]c4c3F)CC2)c(F)n1 [Example 20, 6-fluoro-5-[4-[(5-fluoro-2-methyl-3-oxo-4H-quinoxalin-6-yl)methyl]piperazin-1-yl]-N-methyl-pyridine-2-carboxamide]
concentration at which Compound 20 synergises with TMZ ([1]; U87 IDH1mt): 1 µM
lower concentration for synergy with TMZ in IDH1mt compared to wild type ([1]; U87 IDH1mt vs IDH1 wt): 10 fold
activity in the absence of VAL-083 ([2]; 1 μM Compound 20, ATRX mutant cell lines): has activity
combination effect with VAL-083 ([2]; SJ-G2 IDH1 wt and IDH1mt, ATRX mutant): enhanced combination benefit
IC50 [3]: > 100 µM

From patent US20250082630A1, “METHODS OF TREATING BRAIN TUMOURS AND NEUROBLASTOMAS” (AstraZeneca AB, priority 2021, published 2025)
